Test results reported in US11485742B2, “2-azaspiro[3.4]octane derivatives as M4 agonists” (NOVARTIS AG, priority 2019, dated 2022).
Structures can show the parent of a compound that is named as a salt. Values belong to the compound of their own block, whether it stands above or below them.

Experiments:
[1] = biological target: T1, human cloned CHRM5 receptor (Homo sapiens, UniProt P08912); experiment: CHRM5 Ca++ Flux Assay (M5_CHO cells, agonist mode); format: cell-based; details: for Emax / M5 FDSS PA %: Percent Activity (PA) measured to EC100 of Carbachol; for Emax: read-out: M5 FDSS PA %; for EC50: agonist mode, geometric mean if tested more than once, read-out: M5 FDSS EC50
T1 construct: expressed in transfected cells; host or cells: CHO (M5_CHO)
T1 sequence (P08912 1-532): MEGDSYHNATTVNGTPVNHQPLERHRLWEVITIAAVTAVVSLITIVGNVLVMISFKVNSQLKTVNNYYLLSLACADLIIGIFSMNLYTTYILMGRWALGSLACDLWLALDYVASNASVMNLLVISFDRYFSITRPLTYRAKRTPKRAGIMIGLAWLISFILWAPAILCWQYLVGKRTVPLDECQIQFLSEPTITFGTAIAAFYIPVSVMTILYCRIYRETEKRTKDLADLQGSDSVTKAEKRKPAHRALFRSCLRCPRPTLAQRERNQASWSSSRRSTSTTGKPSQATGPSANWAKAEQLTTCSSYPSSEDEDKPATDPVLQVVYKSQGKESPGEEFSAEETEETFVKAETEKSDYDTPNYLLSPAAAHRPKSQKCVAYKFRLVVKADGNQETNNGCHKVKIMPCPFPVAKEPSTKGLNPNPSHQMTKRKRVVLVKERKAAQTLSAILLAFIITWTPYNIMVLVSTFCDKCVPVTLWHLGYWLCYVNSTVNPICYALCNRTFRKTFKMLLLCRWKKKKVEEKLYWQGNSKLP
Outline: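 CHO-K1 cells stably expressing human M3 or M5 receptor, dye-loaded ≥1 h, treated with 11-point compound doses in triplicate; Ca++ flux read over 3 min (FDSS). Agonist-mode four-parameter fit; percent activity relative to carbachol EC100; repeat tests reported as geometric mean.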

[2] = biological target: T2, human cloned CHRM2 receptor (Homo sapiens, UniProt P08172); experiment: CHRM2 Ca++ Flux Assay (M2_CHO cells, agonist mode); format: cell-based; details: M2 CHO cells; for EC50: agonist mode, geometric mean if tested more than once, read-out: M2 FDSS EC50; for Emax / M2 FDSS PA %: Percent Activity (PA) measured to EC100 of Carbachol; for Emax: read-out: M2 FDSS PA %
T2 construct: expressed in transfected cells; host or cells: CHO-K1 (M2_CHO)
T2 sequence (P08172 1-466): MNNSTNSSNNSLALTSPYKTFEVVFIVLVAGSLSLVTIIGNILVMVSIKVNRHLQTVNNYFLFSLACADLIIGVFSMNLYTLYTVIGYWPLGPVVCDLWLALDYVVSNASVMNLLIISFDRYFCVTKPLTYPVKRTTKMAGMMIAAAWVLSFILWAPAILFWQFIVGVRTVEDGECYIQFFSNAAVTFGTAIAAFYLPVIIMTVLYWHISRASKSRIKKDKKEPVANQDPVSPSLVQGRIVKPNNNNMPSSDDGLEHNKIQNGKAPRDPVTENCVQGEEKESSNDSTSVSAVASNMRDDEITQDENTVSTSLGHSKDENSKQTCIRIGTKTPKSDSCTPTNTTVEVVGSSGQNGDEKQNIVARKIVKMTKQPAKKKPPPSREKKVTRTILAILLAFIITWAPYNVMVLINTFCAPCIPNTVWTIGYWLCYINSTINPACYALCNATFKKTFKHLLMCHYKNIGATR
Outline: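 CHO-K1 cells stably expressing human CHRM2 were plated overnight at 12K cells/well and loaded with Ca++ dye for 1–2 h. They were then held 60 minutes in HBSS −Ca/−Mg, 20 mM HEPES, 2.5 mM probenecid, 20 μM ATP. Agonist-mode Ca++ flux was read over 3 minutes. Four-parameter fits of triplicates gave percent activity relative to carbachol EC100.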

Compound: Fc1cc(F)c(OC2COC2)c(C2CCN([C@@H]3COC4(C3)CN(c3nnco3)C4)CC2)c1 [Example 2EE, (S)-7-(4-(3,5-difluoro-2-(oxetan-3-yloxy)phenyl)piperidin-1-yl)-2-(1,3,4-oxadiazol-2-yl)-5-oxa-2-azaspiro[3.4]octane]
Emax [1]: 0%
EC50 [1]: > 25 µM
EC50 [2]: 2940 nM
Emax [2]: 50%

Compound: Fc1ccc(OC[C@H]2CCO2)c(C2CCN([C@@H]3COC4(C3)CN(c3nncs3)C4)CC2)c1.O=C(O)C(F)(F)F (single isomer, unassigned) [Example 2D, (S)-7-(4-(5-fluoro-2-(((R)-oxetan-2-yl)methoxy)phenyl)piperidin-1-yl)-2-(1,3,4-thiadiazol-2-yl)-5-oxa-2-azaspiro[3.4]octane trifluoroacetate or (S)-7-(4-(5-fluoro-2-(((S)-oxetan-2-yl)methoxy)phenyl)piperidin-1-yl)-2-(1,3,4-thiadiazol-2-yl)-5-oxa-2-azaspiro[3.4]octane trifluoroacetate]
M5 FDSS PA % [1]: 0%
EC50 [1]: > 25 µM
EC50 [2]: 446 nM
M2 FDSS PA % [2]: 50%

Compound: CC(C)(C#N)COc1ccc(F)cc1C1CCN([C@@H]2COC3(C2)CN(c2nnco2)C3)CC1 [Example 1E, (S)-3-(2-(1-(2-(1,3,4-oxadiazol-2-yl)-5-oxa-2-azaspiro[3.4]octan-7-yl)piperidin-4-yl)-4-fluorophenoxy)-2,2-dimethylpropanenitrile]
Emax [1]: 0%
EC50 [1]: > 25 µM
EC50 [2]: 557 nM
Emax [2]: 32%

Compound: Fc1ccc(OC2CCOCC2)c(C2CCN([C@@H]3COC4(C3)CN(c3nnco3)C4)CC2)c1 [Example 1G, (S)-7-(4-(5-fluoro-2-((tetrahydro-2H-pyran-4-yl)oxy)phenyl)piperidin-1-yl)-2-(1,3,4-oxadiazol-2-yl)-5-oxa-2-azaspiro[3.4]octane]
Emax [1]: 0%
EC50 [1]: > 25 µM
EC50 [2]: 1250 nM
Emax [2]: 35%

Compound: Fc1cc(F)c(OC2CC3(COC3)C2)c(C2CCN([C@@H]3COC4(C3)CN(c3nnco3)C4)CC2)c1 [Example 2AA, (S)-7-(4-(2-((2-oxaspiro[3.3]heptan-6-yl)oxy)-3,5-difluorophenyl)piperidin-1-yl)-2-(1,3,4-oxadiazol-2-yl)-5-oxa-2-azaspiro[3.4]octane]
Emax [1]: 0%
EC50 [1]: > 25 µM
EC50 [2]: 7980 nM
Emax [2]: 22%

Compound: Fc1ccc([C@H]2CCOC2)c(C2CCN([C@@H]3COC4(C3)CN(c3nnco3)C4)CC2)c1 (single isomer, unassigned) [Example 3F, (S)-7-(4-(5-fluoro-2-((R)-tetrahydrofuran-3-yl)phenyl)piperidin-1-yl)-2-(1,3,4-oxadiazol-2-yl)-5-oxa-2-azaspiro[3.4]octane or (S)-7-(4-(5-fluoro-2-((S)-tetrahydrofuran-3-yl)phenyl)piperidin-1-yl)-2-(1,3,4-oxadiazol-2-yl)-5-oxa-2-azaspiro[3.4]octane]
M5 FDSS PA % [1]: 0%
EC50 [1]: > 25 µM
EC50 [2]: 406 nM
M2 FDSS PA % [2]: 49%

Compound: Fc1ccc(OCC2C3COCC32)c(C2CCN([C@@H]3COC4(C3)CN(c3nnco3)C4)CC2)c1 (stereo partly drawn) [Example 2Z, (7S)-7-(4-(2-((3-oxabicyclo[3.1.0]hexan-6-yl)methoxy)-5-fluorophenyl)piperidin-1-yl)-2-(1,3,4-oxadiazol-2-yl)-5-oxa-2-azaspiro[3.4]octane]
Emax [1]: 0%
EC50 [1]: > 25 µM
EC50 [2]: 760 nM
Emax [2]: 24%

The remaining lines, values ahead:

Emax [1]: 0%
EC50 [1]: > 25 µM
EC50 [2]: > 25000 nM
Emax [2]: 0%
Compound: c1ccc(C2CCN([C@@H]3COC4(C3)CN(c3nncs3)C4)CC2)c(OC2COC2)c1 [Example 5Q, (S)-7-(4-(2-(oxetan-3-yloxy)phenyl)piperidin-1-yl)-2-(1,3,4-thiadiazol-2-yl)-5-oxa-2-azaspiro[3.4]octane formate salt]

Emax [1]: 4%
EC50 [1]: > 25 µM
EC50 [2]: > 25000 nM
Emax [2]: 0%
Compound: CC(C)(O)COc1ccc(F)cc1C1CCN([C@@H]2COC3(C2)CN(c2ncns2)C3)CC1 [Example 5C, (S)-1-(2-(1-(2-(1,2,4-thiadiazol-5-yl)-5-oxa-2-azaspiro[3.4]octan-7-yl)piperidin-4-yl)-4-fluorophenoxy)-2-methylpropan-2-ol]

Emax [1]: 0%
EC50 [1]: > 25 µM
EC50 [2]: > 25000 nM
Emax [2]: 0%
Compound: COc1ccc(F)cc1C1CCN([C@@H]2COC3(C2)CN(c2ncco2)C3)CC1 [Example 4I, (S)-7-(4-(5-fluoro-2-methoxyphenyl)piperidin-1-yl)-2-(oxazol-2-yl)-5-oxa-2-azaspiro[3.4]octane]

Emax [1]: 0%
EC50 [1]: > 25 µM
EC50 [2]: 4600 nM
Emax [2]: 23%
Compound: COCCOc1ccc(F)cc1C1CCN([C@@H]2COC3(C2)CN(c2nncs2)C3)CC1 [Example 5S, (S)-7-(4-(5-fluoro-2-(2-methoxyethoxy)phenyl)piperidin-1-yl)-2-(1,3,4-thiadiazol-2-yl)-5-oxa-2-azaspiro[3.4]octane]

Emax [1]: 0%
EC50 [1]: > 25 µM
EC50 [2]: > 25000 nM
Emax [2]: 0%
Compound: Fc1ccc(OC2CCOCC2)c(C2CCN([C@@H]3COC4(C3)CN(c3ncco3)C4)CC2)c1 [Example 4E, (S)-7-(4-(5-fluoro-2-((tetrahydro-2H-pyran-4-yl)oxy)phenyl)piperidin-1-yl)-2-(oxazol-2-yl)-5-oxa-2-azaspiro[3.4]octane]

Emax [1]: 0%
EC50 [1]: > 25 µM
EC50 [2]: 1240 nM
Emax [2]: 18%
Compound: COc1ccccc1C1CCN([C@@H]2COC3(C2)CN(c2nncs2)C3)CC1 [Example 5R, (S)-7-(4-(2-methoxyphenyl)piperidin-1-yl)-2-(1,3,4-thiadiazol-2-yl)-5-oxa-2-azaspiro[3.4]octane]

Emax [1]: 0%
EC50 [1]: > 25 µM
EC50 [2]: 12700 nM
Emax [2]: 31%
Compound: Fc1cc(OCC2COC2)c(C2CCN([C@@H]3COC4(C3)CN(c3ncco3)C4)CC2)cc1F [Example 4O, (S)-7-(4-(4,5-difluoro-2-(oxetan-3-ylmethoxy)phenyl)piperidin-1-yl)-2-(oxazol-2-yl)-5-oxa-2-azaspiro[3.4]octane]

Emax [1]: 0%
EC50 [1]: > 25 µM
EC50 [2]: > 25000 nM
Emax [2]: 17%
Compound: Fc1ccc(O[C@@H]2CCOC2)c(C2CCN([C@@H]3COC4(C3)CN(c3ncco3)C4)CC2)c1 [Example 4D, (S)-7-(4-(5-fluoro-2-(((R)-tetrahydrofuran-3-yl)oxy)phenyl)piperidin-1-yl)-2-(oxazol-2-yl)-5-oxa-2-azaspiro[3.4]octane]

Emax [1]: 0%
EC50 [1]: > 25 µM
EC50 [2]: 415 nM
Emax [2]: 34%
Compound: Fc1cc(O[C@@H]2CCOC2)c(C2CCN([C@@H]3COC4(C3)CN(c3nncs3)C4)CC2)cc1F [Example 5M, (S)-7-(4-(4,5-difluoro-2-(((R)-tetrahydrofuran-3-yl)oxy)phenyl)piperidin-1-yl)-2-(1,3,4-thiadiazol-2-yl)-5-oxa-2-azaspiro[3.4]octane]

Emax [1]: 0%
EC50 [1]: > 25 µM
EC50 [2]: > 25000 nM
Emax [2]: 0%
Compound: COCCOc1ccc(F)cc1C1CCN([C@@H]2COC3(C2)CN(c2ncco2)C3)CC1 [Example 4L, (S)-7-(4-(5-fluoro-2-(2-methoxyethoxy)phenyl)piperidin-1-yl)-2-(oxazol-2-yl)-5-oxa-2-azaspiro[3.4]octane]

Emax [1]: 0%
EC50 [1]: 6.64 µM
EC50 [2]: 453 nM
Emax [2]: 32%
Compound: Fc1ccc(OC[C@H]2COCCO2)c(C2CCN([C@@H]3COC4(C3)CN(c3nncs3)C4)CC2)c1 [Example 5K, (S)-7-(4-(2-(((R)-1,4-dioxan-2-yl)methoxy)-5-fluorophenyl)piperidin-1-yl)-2-(1,3,4-thiadiazol-2-yl)-5-oxa-2-azaspiro[3.4]octane]
